Assay results reported in patent US20230085307A1, “PYRIDAZINONE COMPOUND AND HERBICIDE” (NISSAN CHEMICAL CORPORATION, priority 2019, published 2023).

Assays:
lambsquarters = experiment: Test Example 4: herbicidal effect by soil treatment (Table 19, symbol O); assay type: in vivo, lambsquarters (Chenopodium album)
Outline: (§1)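 Three weeks of greenhouse growth at 25° C. to 30° C. followed a uniform surface spray of water-diluted emulsion at a predetermined herbicide amount. Seeds had been sown beforehand under about 1.5 cm of sterilized diluvial soil. Grading followed criteria set out in an earlier test.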

velvetleaf [1] = experiment: Test Example 4: herbicidal effect by soil treatment (Table 19, symbol M); assay type: in vivo, velvetleaf (Abutilon theophrasti)
Outline: as §1

Japanese bulrush = experiment: Test Example 2: herbicidal activity, application during weed generation under submerged conditions (Table 17, symbol B); assay type: in vivo, Japanese bulrush (Schoenoplectus juncoides); settings: application during weed generation, submerged conditions
Outline: (§2)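 Herbicide emulsion, diluted with water to the chosen amount, is applied onto 4 cm floodwater over alluvial soil where the weeds were co-sown and raised at 25–30° C. Application timing: 1–2 leaves. Assessment: three weeks afterwards.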

chickweed [2] = experiment: Test Example 4: herbicidal effect by soil treatment (Table 19, symbol P); assay type: in vivo, common chickweed (Stellaria media)
Outline: as §1

barnyard grass [3] = experiment: Test Example 3: herbicidal effect by foliage application, Wagner pot (Table 18, symbol H); assay type: in vivo, barnyard grass (Echinochloa crus-galli)
Outline: (§3)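 Plants were sown in alluvial soil held under 0.1–0.5 cm standing water and grown 14 days in a greenhouse at 25–30 °C. An emulsifiable formulation, water-diluted to the set dose, was then sprayed onto the foliage, and effects were scored three weeks later using previously defined criteria.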

southern crabgrass = experiment: Test Example 4: herbicidal effect by soil treatment (Table 19, symbol F); assay type: in vivo, southern crabgrass (Digitaria ciliaris)
Outline: as §1

wild oat [4] = experiment: Test Example 4: herbicidal effect by soil treatment (Table 19, symbol I); assay type: in vivo, wild oat (Avena fatua)
Outline: as §1

redroot pigweed [5] = experiment: Test Example 4: herbicidal effect by soil treatment (Table 19, symbol N); assay type: in vivo, redroot pigweed (Amaranthus retroflexus)
Outline: as §1

windgrass = experiment: Test Example 5: herbicidal effect by foliage application, plastic box (Table 20, symbol L); assay type: in vivo, windgrass (Apera spica-venti); settings: foliage application, three weeks after application
Outline: (§4)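 Plants sown in sterilized diluvial soil and grown 14 days in a greenhouse at 25° C to 30° C, then sprayed on the foliage with the compound's emulsion diluted in water to a predetermined herbicide amount. Injury to weeds and crops scored three weeks after application on a visual rating scale.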

rice flat sedge = experiment: Test Example 3: herbicidal effect by foliage application, Wagner pot (Table 18, symbol E); assay type: in vivo, rice flat sedge (Cyperus iria)
Outline: as §3

blackgrass = experiment: Test Example 5: herbicidal effect by foliage application, plastic box (Table 20, symbol J); assay type: in vivo, blackgrass (Alopecurus myosuroides); settings: foliage application, three weeks after application
Outline: as §4

persian speedwell = experiment: Test Example 5: herbicidal effect by foliage application, plastic box (Table 20, symbol R); assay type: in vivo, Persian speedwell (Veronica persica); settings: foliage application, three weeks after application
Outline: as §4

barnyard grass [6] = experiment: Test Example 4: herbicidal effect by soil treatment (Table 19, symbol H); assay type: in vivo, barnyard grass (Echinochloa crus-galli)
Outline: as §1

late watergrass = experiment: Test Example 2: herbicidal activity, application during weed generation under submerged conditions (Table 17, symbol A); assay type: in vivo, late watergrass (Echinochloa oryzicola); settings: application during weed generation, submerged conditions
Outline: as §2

Italian ryegrass [7] = experiment: Test Example 5: herbicidal effect by foliage application, plastic box (Table 20, symbol K); assay type: in vivo, Italian ryegrass (Lolium multiflorum); settings: foliage application, three weeks after application
Outline: as §4

velvetleaf [8] = experiment: Test Example 5: herbicidal effect by foliage application, plastic box (Table 20, symbol M); assay type: in vivo, velvetleaf (Abutilon theophrasti); settings: foliage application, three weeks after application
Outline: as §4

green foxtail [9] = experiment: Test Example 4: herbicidal effect by soil treatment (Table 19, symbol G); assay type: in vivo, green foxtail (Setaria viridis)
Outline: as §1

wild oat [10] = experiment: Test Example 5: herbicidal effect by foliage application, plastic box (Table 20, symbol I); assay type: in vivo, wild oat (Avena fatua); settings: foliage application, three weeks after application
Outline: as §4

green foxtail [11] = experiment: Test Example 5: herbicidal effect by foliage application, plastic box (Table 20, symbol G); assay type: in vivo, green foxtail (Setaria viridis); settings: foliage application, three weeks after application
Outline: as §4

Italian ryegrass [12] = experiment: Test Example 4: herbicidal effect by soil treatment (Table 19, symbol K); assay type: in vivo, Italian ryegrass (Lolium multiflorum)
Outline: as §1

redroot pigweed [13] = experiment: Test Example 5: herbicidal effect by foliage application, plastic box (Table 20, symbol N); assay type: in vivo, redroot pigweed (Amaranthus retroflexus); settings: foliage application, three weeks after application
Outline: as §4

chickweed [14] = experiment: Test Example 5: herbicidal effect by foliage application, plastic box (Table 20, symbol P); assay type: in vivo, common chickweed (Stellaria media); settings: foliage application, three weeks after application
Outline: as §4

[15] = amount of applied herbicide 274 g/ha
[16] = amount of applied herbicide 80 g/ha
[17] = amount of applied herbicide 320 g/ha

COc1ccccc1-c1sc2cc(C)ccc2c1-c1c(O)c(C)nn(C)c1=O [3-049]
O: lambsquarters, herbicidal effect grade (lambsquarters; [15]): 4 (Herbicidal rate of 70% or more and less than 90%)
M: velvetleaf, herbicidal effect grade (velvetleaf [1]; [15]): 0 (Herbicidal rate of 5% or less (almost no effect))
herbicidal effect rating, B: Japanese bulrush (Japanese bulrush; AAH 274 g/ha): 3 (Herbicidal rate of 40% or more and less than 70%)
P: chickweed, herbicidal effect grade (chickweed [2]; [15]): 4 (Herbicidal rate of 70% or more and less than 90%)
herbicidal effect on barnyard grass (H) (barnyard grass [3]; 274 g/ha): 5 (Herbicidal rate of 90% or more (almost completely withered))
F: southern crabgrass, herbicidal effect grade (southern crabgrass; [15]): 3 (Herbicidal rate of 40% or more and less than 70%)
I: wild oat, herbicidal effect grade (wild oat [4]; [15]): 3 (Herbicidal rate of 40% or more and less than 70%)
N: redroot pigweed, herbicidal effect grade (redroot pigweed [5]; [15]): 4 (Herbicidal rate of 70% or more and less than 90%)
L: windgrass, herbicidal effect grade (windgrass; 274 g/ha): 5 (Herbicidal rate of 90% or more (almost completely withered))
herbicidal effect on rice flat sedge (E) (rice flat sedge; 274 g/ha): 3 (Herbicidal rate of 40% or more and less than 70%)
J: blackgrass, herbicidal effect grade (blackgrass; 274 g/ha): 5 (Herbicidal rate of 90% or more (almost completely withered))
R: persian speedwell, herbicidal effect grade (persian speedwell; 274 g/ha): 5 (Herbicidal rate of 90% or more (almost completely withered))
H: barnyard grass, herbicidal effect grade (barnyard grass [6]; [15]): 3 (Herbicidal rate of 40% or more and less than 70%)
herbicidal effect rating, A: late watergrass (late watergrass; AAH 274 g/ha): 4 (Herbicidal rate of 70% or more and less than 90%)
K: Italian ryegrass, herbicidal effect grade (Italian ryegrass [7]; 274 g/ha): 5 (Herbicidal rate of 90% or more (almost completely withered))
M: velvetleaf, herbicidal effect grade (velvetleaf [8]; 274 g/ha): 5 (Herbicidal rate of 90% or more (almost completely withered))
G: green foxtail, herbicidal effect grade (green foxtail [9]; [15]): 3 (Herbicidal rate of 40% or more and less than 70%)
I: wild oat, herbicidal effect grade (wild oat [10]; 274 g/ha): 5 (Herbicidal rate of 90% or more (almost completely withered))
G: green foxtail, herbicidal effect grade (green foxtail [11]; 274 g/ha): 5 (Herbicidal rate of 90% or more (almost completely withered))
K: Italian ryegrass, herbicidal effect grade (Italian ryegrass [12]; [15]): 5 (Herbicidal rate of 90% or more (almost completely withered))
N: redroot pigweed, herbicidal effect grade (redroot pigweed [13]; 274 g/ha): 5 (Herbicidal rate of 90% or more (almost completely withered))
P: chickweed, herbicidal effect grade (chickweed [14]; 274 g/ha): 5 (Herbicidal rate of 90% or more (almost completely withered))

CCOc1ccccc1-c1sc2cc(OC)ccc2c1-c1c(O)c(C)nn(C)c1=O [3-070]
O: lambsquarters, herbicidal effect grade (lambsquarters; [16]): 0 (Herbicidal rate of 5% or less (almost no effect))
M: velvetleaf, herbicidal effect grade (velvetleaf [1]; [16]): 0 (Herbicidal rate of 5% or less (almost no effect))
herbicidal effect rating, B: Japanese bulrush (Japanese bulrush; AAH 80 g/ha): 5 (Herbicidal rate of 90% or more (almost completely withered))
P: chickweed, herbicidal effect grade (chickweed [2]; [16]): 4 (Herbicidal rate of 70% or more and less than 90%)
herbicidal effect on barnyard grass (H) (barnyard grass [3]; 80 g/ha): 5 (Herbicidal rate of 90% or more (almost completely withered))
F: southern crabgrass, herbicidal effect grade (southern crabgrass; [16]): 4 (Herbicidal rate of 70% or more and less than 90%)
I: wild oat, herbicidal effect grade (wild oat [4]; [16]): 0 (Herbicidal rate of 5% or less (almost no effect))
N: redroot pigweed, herbicidal effect grade (redroot pigweed [5]; [16]): 0 (Herbicidal rate of 5% or less (almost no effect))
L: windgrass, herbicidal effect grade (windgrass; 80 g/ha): 5 (Herbicidal rate of 90% or more (almost completely withered))
herbicidal effect on rice flat sedge (E) (rice flat sedge; 80 g/ha): 5 (Herbicidal rate of 90% or more (almost completely withered))
J: blackgrass, herbicidal effect grade (blackgrass; 80 g/ha): 5 (Herbicidal rate of 90% or more (almost completely withered))
R: persian speedwell, herbicidal effect grade (persian speedwell; 80 g/ha): 5 (Herbicidal rate of 90% or more (almost completely withered))
H: barnyard grass, herbicidal effect grade (barnyard grass [6]; [16]): 0 (Herbicidal rate of 5% or less (almost no effect))
herbicidal effect rating, A: late watergrass (late watergrass; AAH 80 g/ha): 3 (Herbicidal rate of 40% or more and less than 70%)
K: Italian ryegrass, herbicidal effect grade (Italian ryegrass [7]; 80 g/ha): 4 (Herbicidal rate of 70% or more and less than 90%)
M: velvetleaf, herbicidal effect grade (velvetleaf [8]; 80 g/ha): 5 (Herbicidal rate of 90% or more (almost completely withered))
G: green foxtail, herbicidal effect grade (green foxtail [9]; [16]): 3 (Herbicidal rate of 40% or more and less than 70%)
I: wild oat, herbicidal effect grade (wild oat [10]; 80 g/ha): 5 (Herbicidal rate of 90% or more (almost completely withered))
G: green foxtail, herbicidal effect grade (green foxtail [11]; 80 g/ha): 4 (Herbicidal rate of 70% or more and less than 90%)
K: Italian ryegrass, herbicidal effect grade (Italian ryegrass [12]; [16]): 0 (Herbicidal rate of 5% or less (almost no effect))
N: redroot pigweed, herbicidal effect grade (redroot pigweed [13]; 80 g/ha): 5 (Herbicidal rate of 90% or more (almost completely withered))
P: chickweed, herbicidal effect grade (chickweed [14]; 80 g/ha): 5 (Herbicidal rate of 90% or more (almost completely withered))

Cc1nn(C)c(=O)c(-c2c(-c3ccc(C#N)cc3)sc3ccccc23)c1O [Compound No. 1-045, 5-hydroxy-2,6-dimethyl-4-(2-(4-cyanophenyl)benzo[b]thiophen-3-yl)pyridazin-3(2H)-one]
herbicidal effect rating, O: lambsquarters (lambsquarters; [17]): 5 (Herbicidal rate of 90% or more (almost completely withered))
herbicidal effect rating, M: velvetleaf (velvetleaf [1]; [17]): 5 (Herbicidal rate of 90% or more (almost completely withered))
herbicidal effect rating, B: Japanese bulrush (Japanese bulrush; AAH 320 g/ha): 3 (Herbicidal rate of 40% or more and less than 70%)
herbicidal effect rating, P: chickweed (chickweed [2]; [17]): 4 (Herbicidal rate of 70% or more and less than 90%)
herbicidal effect on H (barnyard grass), rating 0-5 (barnyard grass [3]; 320 g/ha): 5 (Herbicidal rate of 90% or more (almost completely withered))
herbicidal effect rating, F: southern crabgrass (southern crabgrass; [17]): 4 (Herbicidal rate of 70% or more and less than 90%)
herbicidal effect rating, I: wild oat (wild oat [4]; [17]): 0 (Herbicidal rate of 5% or less (almost no effect))
herbicidal effect rating, N: redroot pigweed (redroot pigweed [5]; [17]): 3 (Herbicidal rate of 40% or more and less than 70%)
herbicidal effect grade, L: windgrass (windgrass; 320 g/ha): 0 (Herbicidal rate of 5% or less (almost no effect))
herbicidal effect on E (rice flat sedge), rating 0-5 (rice flat sedge; 320 g/ha): 5 (Herbicidal rate of 90% or more (almost completely withered))
herbicidal effect grade, J: blackgrass (blackgrass; 320 g/ha): 0 (Herbicidal rate of 5% or less (almost no effect))
herbicidal effect grade, R: persian speedwell (persian speedwell; 320 g/ha): 5 (Herbicidal rate of 90% or more (almost completely withered))
herbicidal effect rating, H: barnyard grass (barnyard grass [6]; [17]): 5 (Herbicidal rate of 90% or more (almost completely withered))
herbicidal effect rating, A: late watergrass (late watergrass; AAH 320 g/ha): 1 (Herbicidal rate of 5% or more and less than 20%)
herbicidal effect grade, K: Italian ryegrass (Italian ryegrass [7]; 320 g/ha): 5 (Herbicidal rate of 90% or more (almost completely withered))
herbicidal effect grade, M: velvetleaf (velvetleaf [8]; 320 g/ha): 5 (Herbicidal rate of 90% or more (almost completely withered))
herbicidal effect rating, G: green foxtail (green foxtail [9]; [17]): 4 (Herbicidal rate of 70% or more and less than 90%)
herbicidal effect grade, I: wild oat (wild oat [10]; 320 g/ha): 3 (Herbicidal rate of 40% or more and less than 70%)
herbicidal effect grade, G: green foxtail (green foxtail [11]; 320 g/ha): 3 (Herbicidal rate of 40% or more and less than 70%)
herbicidal effect rating, K: Italian ryegrass (Italian ryegrass [12]; [17]): 5 (Herbicidal rate of 90% or more (almost completely withered))
herbicidal effect grade, N: redroot pigweed (redroot pigweed [13]; 320 g/ha): 5 (Herbicidal rate of 90% or more (almost completely withered))
herbicidal effect grade, P: chickweed (chickweed [14]; 320 g/ha): 5 (Herbicidal rate of 90% or more (almost completely withered))
